# Source: PMC3670929, “Zn(II)-Chlorido Complexes of Phytohormone Kinetin and Its Derivatives Modulate Expression of Inflammatory Mediators in THP-1 Cells” (PLoS ONE, 2013)
# Tested on: IL-1β
# Experiment: LPS-induced IL-1β secretion in THP-1 macrophage-like cells (ELISA)
# Format: cell-based, human
# Settings: complexes 5 µM, prednisone 1 µM, 1 h pre-treatment, 24 h after LPS
# Description: To determine the influence of the tested complexes on the TNF-α and IL-1β secretions and MMPs activity, macrophage-like cells derived from the THP-1 cell line were used. The cells were cultivated as above, but were split into 24-well microtitre plates to get a concentration of 100 000 cells/mL (1 mL/well) and the differentiation to macrophages was induced by phorbol myristate acetate (PMA) as described previously. Differentiated macrophages were pre-treated for 1 h with 5 µM solutions of the tested complexes or 1 µM prednisone dissolved in DMSO [the final DMSO concentration was 0.1% (v/v)] and with the 0.1% (v/v) DMSO solution itself (the experimental group called vehicle); the given concentrations of the compounds lack the cytotoxic effect. The inflammatory response was triggered by adding 1 µg/mL Escherichia coli 0111:B4 lipopolysaccharide (LPS) (Sigma-Aldrich, Germany) dissolved in water to pre-treated macrophages, control cells were without the LPS treatment. Each experiment was performed in triplicate. Macrophages, which were pre-treated with the tested compounds for 1 h, were incubated with LPS for the next 24 h. Then, the medium was collected and the concentrations of TNF-α and IL-1β were measured by an Instant ELISA kit (eBioscience, Austria) according to the manufacturer’s manual.
smiles,measurement,value
"C[C@]12C=CC(=O)C=C1CC[C@@H]1[C@@H]2C(=O)C[C@@]2(C)[C@H]1CC[C@]2(O)C(=O)CO [prednisone, reference compound]","decrease of IL-1β secretion, factor in comparison with the vehicle-treated cells",2.42 times
